Measurements published in paper PMC6895912 (Cancers, 2019).
Where “and” joins values, the source holds several entries; their conditions need not be identical. Equal values may be shown once.

System: CWR22Rv1 xenografts
Experiment: Antitumor efficacy in castration-resistant CWR22Rv1 xenograft model
Type: in vivo, male NOD SCID mice
Details: 5 days/week, 16 days
Method: Following the in vitro studies and determination of the PK parameters, we then investigated the relative efficacy. Gal and the NGGAs in vivo using difficult-to-treat castration-resistant CWR22Rv1 xenografts. Given the enhanced IP and PO PK parameters of VNPP414 and VNPP433-3β over Gal, we decided to use lower doses of the new analogs compared to the previous Gal doses (200 mg/kg, IP/PO). Gal (200 mg/kg) served as positive control, while ENZ (25 mg/kg) administered PO was used as negative control. Male NOD SCID mice bearing CWR22Rv1 tumors were treated with vehicle, ENZ, Gal, VNPP414, and VNPP433-3β for 16 days as described in the Methods and Materials Section. […] In contrast, Gal and the NGGAs caused statistically significant tumor growth inhibition (TGI). […] It is notable that VNPP433-3β (at 7.5- and 15-fold lower molar doses) and VNPP414 (at 4-fold lower molar dose) are more efficacious than Gal. In general, no host toxicities were observed, as monitored by changes in animal body weight (Figure 7C).
Figure 7 Effects of Gal, NGGAs and ENZ in an in vivo castration-resistant prostate cancer model. (A) Mice bearing CWR22Rv1 xenografts (5 mice per group) were treated with vehicle, Gal (100 mg/kg/twice daily), VNPP414 (60 mg/kg, once daily), VNPP433-3β (15 or 30 mg/kg, once daily) and ENZ (25 mg.kg, once daily) 5 days per week for 16 days. Tumor volumes were measured twice a week and the tumors were collected. Tumor growth inhibition (TGI) values are indicated at the right of each growth curve, and the error bars are the SEM. Results are represented as means ± SEM. ^# p = ns (not significant vs. vehicle), ^$ p < 0.0272 vs. vehicle, * p < 0.0035 vs. vehicle, ** p < 0.0025 vs. vehicle and *** p < 0.0008 vs. vehicle. (B) Photographed tumors from each group. (C) Mean body weights of mice determined during the study. (D) Western blot analyses of tumor samples from each experimental group at day 16. […] It is left out because vehicle is a control, not a substance.
Male NOD SCID mice 5–6 weeks of age were obtained from University of Maryland School of Medicine Veterinary Resources (Baltimore, MD, USA. Mice were housed under complete aseptic conditions, fed autoclaved pellets and sterile water ad libitum. Following a week of acclimatization, approximately 5 × 10^6 CWR22Rv1 cells were inoculated one flank f mice. Tumor-bearing mice (tumor volume around ~100 mm^3) were randomized into 6 groups (5 mice in each group; compounds formulated in vehicle) and treated as follows: (i) vehicle control (40% β-cyclodextrin in saline, PO.), (ii) ENZ (25 mg/kg, PO, once daily), (iii) Gal (100mg/kg, PO, twice daily), (iv) VNPP414 (60 mg/kg, PO, once daily), (v) VNPP433-3β (15 mg/kg, PO, once daily), and (vi) VNPP433-3β (30 mg/kg, PO, once daily) for 5 days/week. Tumors were measured twice weekly with calipers and tumor volume was calculated by the formula: length × width^2 × 0.5 (mm^3). Animals were also weighed weekly and monitored for general health status and signs of possible toxicity due to treatments. Mice were sacrificed after the indicated periods of treatment and tumors excised. Tumors were divided and either flash frozen in liquid nitrogen or placed in 10% buffered formalin for western blot analysis.

SMILES: C[C@]12CC[C@H](O)CC1=CC[C@@H]1[C@@H]2CC[C@]2(C)C(n3cnc4ccccc43)=CC[C@@H]12 [Galeterone]
- tumor growth inhibition (TGI) (200 mg/kg (100 mg/kg PO twice daily), listed as Gal): 47% and 46.5%

SMILES: C[C@]12CC[C@H](OCc3ccncc3)CC1=CCC1C2CC[C@]2(C)C(n3cnc4ccccc43)=CCC12 (stereo partly shown) [VNPP414]
- tumor growth inhibition (TGI) (60 mg/kg PO once daily): 62.8%

SMILES: C[C@]12CC[C@H](n3ccnc3)CC1=CCC1C2CC[C@]2(C)C(n3cnc4ccccc43)=CCC12 (stereo partly drawn) [VNPP433-3β]
- tumor growth inhibition (TGI) (15 mg/kg PO once daily): 60.5%
- tumor growth inhibition (TGI) (30 mg/kg PO once daily): 84% and 83.7%
